Results: ChEMBL document CHEMBL2046421, “Study on anti-proliferative effect of benzoxathiole derivatives through inactivation of NF-κB in human cancer cells” (Bioorg Med Chem Lett, 2012)

Legend:
[1] = Inhibition of NFkappaB expressed in RAW264.7 cells coexpressing NPT assessed as inhibition of LPS-induced SEAP activity incubated for 2 hrs prior to LPS-induction measured after 16 hrs by reporter gene assay; type: cell-based
PC-3 = experiment: Antiproliferative activity against human PC3 cells by SRB assay; type: functional
ACHN = experiment: Antiproliferative activity against human ACHN cells by SRB assay; type: functional
NCI-H23 = experiment: Antiproliferative activity against human NCI-H23 cells by SRB assay; type: functional
HCT-15 = experiment: Antiproliferative activity against human HCT15 cells by SRB assay; type: functional
NUGC-3 = experiment: Antiproliferative activity against human NUGC3 cells by SRB assay; type: functional
[2] = Inhibition of NFkappaB expressed in THP1 cells assessed as inhibition of LPS-induced SEAP activity incubated for 2 hrs prior to LPS-induction measured after 16 hrs by reporter gene assay; type: cell-based; conditions: THP-1
MDA-MB-231 = experiment: Antiproliferative activity against human MDA-MB-231 cells by SRB assay; type: functional

CC1(C)CC(=O)c2s/c(=N/c3ccccc3)oc2C1
IC50 [1]: 6.2 µM | GI50 (PC-3): 7.4 µM | GI50 (ACHN): 8.98 µM | GI50 (NCI-H23): 7.08 µM | GI50 (HCT-15): 8.09 µM | GI50 (NUGC-3): 5.46 µM | IC50 [2]: 6.2 µM | GI50 (MDA-MB-231): 5.88 µM

CC1CC(=O)c2s/c(=N/c3ccccc3)oc2C1 (stereo not drawn)
IC50 [1]: 6.7 µM | GI50 (PC-3): 2.63 µM | GI50 (ACHN): 2.98 µM | GI50 (NCI-H23): 2.72 µM | GI50 (HCT-15): 2.07 µM | GI50 (NUGC-3): 1.89 µM | IC50 [2]: 6.7 µM | GI50 (MDA-MB-231): 2.31 µM

CC1(C)CC(=O)c2s/c(=N/c3ccc(F)cc3)oc2C1
IC50 [1]: 10.6 µM | GI50 (PC-3): 2.45 µM | GI50 (ACHN): 3.74 µM | GI50 (NCI-H23): 3.36 µM | GI50 (HCT-15): 2.39 µM | GI50 (NUGC-3): 1.08 µM | IC50 [2]: 10.6 µM | GI50 (MDA-MB-231): 3.2 µM

COc1cccc2c1C(=O)c1c(O)c3c(c(O)c1C2=O)C[C@@](O)(C(=O)CO)C[C@@H]3O[C@H]1C[C@H](N)[C@H](O)[C@H](C)O1 [DOXORUBICIN]
GI50 (PC-3): 1.65 µM | GI50 (ACHN): 1.63 µM | GI50 (NCI-H23): 1.66 µM | GI50 (HCT-15): 1.34 µM | GI50 (NUGC-3): 1 µM | GI50 (MDA-MB-231): 1.79 µM

CCCc1o/c(=N\c2ccccc2)sc1C(C)=O
IC50 [1]: > 30 µM | GI50 (PC-3): > 30 µM | GI50 (ACHN): > 30 µM | GI50 (NCI-H23): > 30 µM | GI50 (HCT-15): > 30 µM | GI50 (NUGC-3): > 30 µM | IC50 [2]: > 30 µM | GI50 (MDA-MB-231): > 30 µM

CC1(C)CC(=O)c2s/c(=N/c3c(Cl)cc(Cl)cc3Cl)oc2C1
IC50 [1]: > 30 µM | GI50 (PC-3): > 30 µM | GI50 (ACHN): > 30 µM | GI50 (NCI-H23): > 30 µM | GI50 (HCT-15): > 30 µM | GI50 (NUGC-3): > 30 µM | IC50 [2]: > 30 µM | GI50 (MDA-MB-231): > 30 µM

CC(C)C1CC(=O)c2s/c(=N/c3c(Cl)cc(Cl)cc3Cl)oc2C1 (stereo not drawn)
IC50 [1]: > 30 µM | GI50 (PC-3): > 30 µM | GI50 (ACHN): > 30 µM | GI50 (NCI-H23): > 30 µM | GI50 (HCT-15): > 30 µM | GI50 (NUGC-3): > 30 µM | IC50 [2]: > 30 µM | GI50 (MDA-MB-231): > 30 µM

CC1(C)CC(=O)c2s/c(=N/c3ccc(Cl)cc3)oc2C1
IC50 [1]: 7.5 µM | GI50 (PC-3): 4.26 µM | GI50 (ACHN): 9.81 µM | GI50 (NCI-H23): 11.6 µM | GI50 (HCT-15): 3.79 µM | GI50 (NUGC-3): 2.94 µM | IC50 [2]: 7.5 µM | GI50 (MDA-MB-231): 6.38 µM

CC1CC(=O)c2s/c(=N/c3ccc(Cl)cc3)oc2C1 (stereo not drawn)
IC50 [1]: 19.5 µM | GI50 (PC-3): 16.4 µM | GI50 (ACHN): 12.3 µM | GI50 (NCI-H23): 13.5 µM | GI50 (HCT-15): 12.2 µM | GI50 (NUGC-3): 15.9 µM | IC50 [2]: 19.5 µM | GI50 (MDA-MB-231): 14.3 µM

CC(C)C1CC(=O)c2s/c(=N/C3CCCCC3)oc2C1 (stereo not drawn)
IC50 [1]: 13.1 µM | GI50 (PC-3): 5.16 µM | GI50 (ACHN): 6.7 µM | GI50 (NCI-H23): 7.08 µM | GI50 (HCT-15): 3.53 µM | GI50 (NUGC-3): 2.71 µM | IC50 [2]: 13.1 µM | GI50 (MDA-MB-231): 5.9 µM

CC1(C)CC(=O)c2s/c(=N/C3CCCCC3)oc2C1
IC50 [1]: 12.5 µM | GI50 (PC-3): 12.7 µM | GI50 (ACHN): 11.3 µM | GI50 (NCI-H23): 12.5 µM | GI50 (HCT-15): 12.2 µM | GI50 (NUGC-3): 11.5 µM | IC50 [2]: 12.5 µM | GI50 (MDA-MB-231): 13.1 µM

CC(C)C1CC(=O)c2s/c(=N/c3ccc(F)cc3)oc2C1 (stereo not drawn)
IC50 [1]: 7.9 µM | GI50 (PC-3): 2.76 µM | GI50 (ACHN): 3.67 µM | GI50 (NCI-H23): 3.65 µM | GI50 (HCT-15): 2.99 µM | GI50 (NUGC-3): 0.67 µM | IC50 [2]: 7.9 µM | GI50 (MDA-MB-231): 2.69 µM

CC1CC(=O)c2s/c(=N/c3c(Cl)cc(Cl)cc3Cl)oc2C1 (stereo not drawn)
IC50 [1]: > 30 µM | GI50 (PC-3): > 30 µM | GI50 (ACHN): > 30 µM | GI50 (NCI-H23): > 30 µM | GI50 (HCT-15): > 30 µM | GI50 (NUGC-3): > 30 µM | IC50 [2]: > 30 µM | GI50 (MDA-MB-231): > 30 µM

CC1(C)CC(=O)c2o/c(=N/C3CCCCC3)oc2C1
IC50 [1]: > 30 µM | GI50 (PC-3): > 30 µM | GI50 (ACHN): > 30 µM | GI50 (NCI-H23): > 30 µM | GI50 (HCT-15): > 30 µM | GI50 (NUGC-3): > 30 µM | IC50 [2]: > 30 µM | GI50 (MDA-MB-231): > 30 µM

CC(C)C1CC(=O)c2s/c(=N/c3ccccc3)oc2C1 (stereo not drawn)
IC50 [1]: 4.9 µM | GI50 (PC-3): 2.19 µM | GI50 (ACHN): 3.08 µM | GI50 (NCI-H23): 2.28 µM | GI50 (HCT-15): 1.15 µM | GI50 (NUGC-3): 1.22 µM | IC50 [2]: 4.9 µM | GI50 (MDA-MB-231): 2.48 µM
